Drawing on ChEMBL document CHEMBL5532639, “Heterocyclic pyrimidine derivatives as promising antibacterial agents” (Eur J Med Chem, 2023), this text covers IC50 for one compound.

One experiment deals with Pneumocystis carinii. In words: Antifungal activity against Pneumocystis carinii assessed as reduction in fungal growth. It is filed as functional, organism-based.
Another experiment deals with Toxoplasma gondii. In words: Antiparasitic activity against Toxoplasma gondii assessed as parasitic growth inhibition. Type of experiment: functional, organism-based.

Turning to `COc1ccc(-c2cc(C#Cc3ccc(C(=O)O)cc3)cc(Cc3cnc(N)nc3N)c2)cc1OC`, the results for the IC50 with Pneumocystis carinii and in the experiment on Toxoplasma gondii were 1.2 µM and 0.42 µM, respectively.

The IC50 is the concentration that gives 50% inhibition.
